Test results taken from article PMC9145865, “Effects of Rare Phytocannabinoids on the Endocannabinoid System of Human Keratinocytes” (International Journal of Molecular Sciences, 2022).
Entries after “also recorded” stand apart in the source; their conditions may differ.

What was measured:
[1] = test system: GPR55; test: qRT-PCR gene expression of GPR55; type: cell-based, human; details: HaCaT cells, half-IC50 dose, 24 h, vs. control
Procedure: The HaCaT cells were seeded into 6-well plates at a density of 4 × 10^4 per well, incubated overnight and then treated with the selected pCBs (CBG (6.0 µM), CBC (4.0 µM), THCV (9.0 µM) and CBGA (13.0 µM)) for 24 h. The cell pellets were collected and RT-PCR reactions were performed using the RevertAid H Minus First Strand cDNA Synthesis Kit. The relative abundance was assessed via RT quantitative PCR (RT-qPCR) using the SensiFAST SYBR Lo-ROX Kit in an Applied Biosystems 7500 Fast Real-Time PCR System (Life Technologies). To provide the precise quantification of the initial target in each PCR reaction, the amplification plot was examined, as well as the point of early log phase of the product accumulation, which was defined by assigning a fluorescence threshold above the background that was defined as the threshold cycle number or “Ct. Differences” in threshold cycle number that was used to quantify the relative amount of the PCR targets that were contained within each tube. After PCR, a dissociation curve (melting curve) was constructed in the range of 60 °C to 95 °C [62] to evaluate the specificity of the amplification products. The relative expression of the different amplicons was calculated using the delta–delta Ct (ΔΔCt) method and then converted into the relative expression ratio (2^−ΔΔCt) for statistical analysis. All data were normalized to the endogenous reference genes β-actin and glyceraldehyde-3-phosphate dehydrogenase. The specific primers (Table 5) that were used were designed and ordered from Integrated DNA Technologies (IDT; Coralville, IA, USA) with the following sequences: […]

[2] = test system: PPARα; test: Western blot protein expression of PPARα; type: cell-based, human; details: HaCaT cells, half-IC50 dose, 24 h, vs. control
Procedure: (§1) The HaCaT cells were seeded into 6-well plates at a density of 4 × 10^4 per well, incubated overnight and then treated with the selected pCBs (6.0 µM of CBG, 4.0 µM of CBC, 9.0 µM of THCV and 13.0 µM of CBGA) for 24 h. The cell pellets were collected and then lysed in an ice-cold lysis buffer (10 mM of EDTA, 50 mM of pH 7.4 Tris–HCl, 150 mM of sodium chloride, 1% Triton-X-100, 2 mM of phenylmethylsulfonyl fluoride, 2 mM of sodium orthovanadate, […] of leupeptin and […] of aprotinin). The amount of protein was determined using the Bio-Rad Protein assay (Bio-Rad Laboratories, Hemel Hempstead, UK). An equal amount of protein (60 µg) was loaded onto 10% sodium dodecyl sulfate–polyacrylamide gels and blotted onto polyvinylidene fluoride sheets (Amersham Biosciences, Piscataway, NJ, USA). The membranes were blocked with dried 5% non-fat milk for 1 h and then incubated with suitable primary antibodies. Detection was performed using Azure Biosystems c400 (Dublin, CA, USA). The membranes were stripped using the Restore Western Blot Stripping Buffer from Thermo Fisher Scientific (Waltham, MA, USA) for 30 min under agitation at room temperature, according to the manufacturer’s instructions. The primary antibodies (Table 6) that were used were obtained from the following sources: […]

[3] = test system: PPARδ; test: Western blot protein expression of PPARδ; type: cell-based, human; details: HaCaT cells, half-IC50 dose, 24 h, vs. control
Procedure: as §1

[4] = test system: CB1/2; test: Receptor binding assay on adherent living cells with [3H]CP 55,940; parameters: species or system human; details: HaCaT cells treated 24 h with half-IC50 amount; for total CB1/2 binding activity (in words): vs. control; for CB1/2 Binding Activity (pmol/mg of Protein): 2.5 nM [3H]CP 55,940, mean ± SEM, n = 3
Procedure: We also sought to investigate the effects of half-IC50 doses of pCBs on the functional activity of eCB-binding receptors (CB1/2 and TRPV1) and the AEA and 2-AG metabolizing enzymes (NAPE-PLD, FAAH, DAGLα/β and MAGL) when used to treat HaCaT cells for 24 h, for which an assay procedure was available. To this end, a CB1/2 ligand binding assay was performed using the radiolabeled synthetic cannabinoid [^3H]CP 55,940, which acts as a full agonist of both cannabinoid receptors with high and roughly equal affinity.
The HaCaT cells were seeded into 12-well plates at a density of 2 × 10^4 per well, incubated overnight and then treated with the selected pCBs (6.0 µM of CBG, 4.0 µM of CBC, 9.0 µM of THCV and 13.0 µM CBGA) for 24 h. Each well of the 12-well plates was washed twice with 1 mL of PBS and treated with 500 µL of incubation buffer (50 mM of Tris–HCl, 5 mM of MgCl2 and 1 mM of CaCl2; 0.2% BSA; pH 7.4), preheated to 37 °C and then incubated for 15 min at 37 °C. Then, 2.5 nM of [^3H]CP 55,940 was added and incubation occurred for 1 h in an incubator that was set at 37 °C. Afterward, the buffer was carefully removed and the cells were washed again with an ice-cold washing buffer (50 mM of Tris–HCl and 500 mM of NaCl; 0.1% BSA; pH 7.4). Unspecific binding was determined in the presence of 1 µM of synthetic agonist CP 55,940 [60]. Then, 500 µL of 0.5 M NaOH was added to each well and the cells were pipetted up and down several times in order to be lysed. The resuspension was then transferred to a 10-mL scintillation vial with a liquid scintillation cocktail and radioactivity was immediately read using a scintillation β-counter (Tri-Carb 2810 TR, Perkin Elmer, Waltham, MA, USA), as described in [40].

[5] = test system: DAGLα/β; test: DAGL α/β activity assay in membranes of treated cells; type: cell-based, human; details: HaCaT cells, half-IC50 amount, 24 h, vs. control
Procedure: DAGL α/β Assay: The HaCaT cells were seeded into 6-well plates at a density of 4 × 10^4 per well, incubated overnight and then treated with the selected pCBs (6.0 µM of CBG, 4.0 µM of CBC, 9.0 µM of THCV and 13.0 µM of CBGA) for 24 h. The cell pellets were collected and DAGL α/β activity was determined using membranes that were isolated from these cells using the synthetic substrate p-nitrophenyl butyrate (pNPB) (8 mM) in 50 mM of HEPES pH 7.3 at room temperature for 20 min [68]. The DAGLα/β inhibitor KT172 (1 μM), which was purchased from Sigma-Aldrich (St. Louis, MO, USA), was used to fully erase the enzyme activity as a control.

[6] = test system: MAGL; test: MAGL activity assay in membranes of treated cells; type: cell-based, human; details: HaCaT cells, half-IC50 amount, 24 h, vs. control
Procedure: MAGL Assay: The HaCaT cells were seeded into 6-well plates at a density of 4 × 10^4 per well, incubated overnight and then treated with the selected pCBs (6.0 µM of CBG, 4.0 µM of CBC, 9.0 µM of THCV and 13.0 µM of CBGA) for 24 h. The cell pellets were collected and MAGL activity was determined using membranes that were isolated from these cells using the synthetic substrate arachidonoyl-1-thio-glycerol (200 μM) in 10 mM of Tris and 1 mM of EDTA pH 7.2 at 4 °C for 15 min [68]. The MAGL inhibitor JZL184 (4 μM), which was purchased from Sigma-Aldrich (St. Louis, MO, USA), was used to fully erase the enzyme activity as a control.

Row | SMILES | Gene Expression GPR55 [1] | gene expression of GPR55 (in words) [1] | PPARα protein expression (in words) [2] | Protein Expression PPARα [2] | PPARδ protein expression (in words) [3] | Protein Expression PPARδ [3] | total CB1/2 binding activity (in words) [4] | CB1/2 Binding Activity (pmol/mg of Protein) [4] | DAGLα/β activity [5] | activity of MAGL [6]
1 | CCCCCc1cc(O)c2c(c1)OC(C)(CCC=C(C)C)C=C2 (centres unmarked) [CBC, cannabichromene] | ↓++++ | reduced | significantly reduced | ↓++ | significantly reduced | ↓++++ | significantly increased | 10.380 ± 0.750 pmol/mg of Protein | increased DAGLα/β activity remarkably | significantly increased
2 | CCCCCc1cc(O)c(C/C=C(\C)CCC=C(C)C)c(O)c1 [CBG, cannabigerol] |  |  |  |  | significantly reduced | ↓+++ | significantly increased; also recorded: doubled | 8.027 ± 0.681 pmol/mg of Protein | increased DAGLα/β activity remarkably | significantly increased
3 | CCCCCc1cc(O)c(C/C=C(\C)CCC=C(C)C)c(O)c1C(=O)O [CBGA, cannabigerolic acid] | GPR55 ↑+++ | significant increase | significantly reduced | ↓++++ | significantly reduced | ↓++++ | significantly increased | 8.373 ± 0.410 pmol/mg of Protein |  | significantly increased
4 | CCCc1cc(O)c2c(c1)OC(C)(C)[C@@H]1CCC(C)=C[C@@H]21 [THCV, Δ^9-tetrahydrocannabivarin] | ↑++++ | significant increase | significantly reduced | ↓++ | significantly reduced | ↓++++ | significantly increased | 8.187 ± 0.302 pmol/mg of Protein | increased DAGLα/β activity remarkably | significantly increased
